Measurements reported in ChEMBL document CHEMBL3301361, “Experimental in vitro DMPK and physicochemical data on a set of publicly disclosed compounds”.
Values after ≈ are worked out from the molar mass of the structure shown.

Columns and labels:
[1] = physchem; settings: octan-1-ol/water, pH 7.4, LogD7.4
[2] = physchem; settings: pH 7.4 buffer

Compound | logD [1] | solubility thermodynamic [2]
Cn1cnc(-c2ccccc2)c1-c1nc2c(N)ncnc2s1 | 2.69 | 162 µM (≈ 50 µg/mL)
O=C(O)C[C@@H]1c2ccccc2C[C@H]1NC(=O)c1cc2sc(Cl)c(Cl)c2[nH]1 | 2.53 | 1510 µM (≈ 620 µg/mL)
CCCCn1c(Cc2cc(OC)c(OC)c(OC)c2)nc2c(N)ncnc21 | 2.39 | 85.1 µM (≈ 31.6 µg/mL)
Nc1ccc2cccc(Nc3ncccn3)c2n1 | 2.7 | 26.9 µM (≈ 6.38 µg/mL)
CCCc1c(O)c(O)c(C(=O)O)c2cc(Cc3ccccc3)c(C)cc12 | 2.6 | 204 µM (≈ 71.6 µg/mL)
Clc1n[nH]c2cccc(Nc3ccnc(Nc4cc(N5CCOCC5)cc(N5CCOCC5)c4)n3)c12 | 2.78 | 5.1 µM (≈ 2.59 µg/mL)
CS(=O)(=O)c1cccc(Nc2nccc(Nc3cccc4ncoc34)n2)c1 | 2.5 | 5.6 µM (≈ 2.14 µg/mL)
COc1cc(C(=O)NS(=O)(=O)c2ccccc2C)ccc1Cc1cn(C)c2ccc(C(=O)NCCc3ccccc3)cc12 | 2.51 | 144 µM (≈ 86.1 µg/mL)
N#Cc1cnn(-c2ccccc2)c1NC(=O)CN1CCN(c2ccccc2)CC1 | 2.3 | 25.1 µM (≈ 9.7 µg/mL)
CCn1c(=O)ccc2cnc(Nc3ccc(OC)c(OC)c3)nc21 | 2.7 | 1.6 µM (≈ 0.522 µg/mL)
Clc1cccc(Cl)c1-c1nnc2cccc(Cl)n12 | 2.66 | 115 µM (≈ 34.3 µg/mL)
CCOC(=O)c1ccccc1-c1csc(NS(=O)(=O)c2ccc(Cl)cc2)n1 | 2.43 | 1.4 µM (≈ 0.592 µg/mL)
COc1ccc(S(=O)(=O)Nc2ccc(/C=C/C(=O)Nc3ccccc3N)cc2)cc1OC | 2.56 | 7.8 µM (≈ 3.54 µg/mL)
CNc1ncc(C(=O)c2ccccc2)s1 | 2.36 | 724 µM (≈ 158 µg/mL)
COc1ccc(C(=O)C2CCN(C(=O)c3ccco3)CC2)cc1 | 2.42 | 380 µM (≈ 119 µg/mL)
NC(=O)c1sc(-c2ccsc2)cc1NS(=O)(=O)c1ccc(C(F)(F)F)cc1 | 2.39 | 4.8 µM (≈ 2.08 µg/mL)
FC(F)(F)c1nnc2ccc(NCn3nnc4ccccc43)nn12 | 2.34 | 18.2 µM (≈ 6.08 µg/mL)
NCC(O)(c1ccc(Cl)cc1)c1ccc(Cl)cc1 | 2.69 | 759 µM (≈ 214 µg/mL)
CN1CCN(CC(=O)Nc2ccc(-c3cccn4c(=O)cc(N5CCOCC5)nc34)c3sc4ccccc4c23)CC1 | 2.6 | 5.4 µM (≈ 3.07 µg/mL)
c1ccc(Nc2ccnc3ccccc23)cc1 | 2.78 | 324 µM (≈ 71.3 µg/mL)
COc1cc(-c2cccc3c(=O)cc(N4CCOCC4)oc23)ccc1NC(=O)CN1CCOCC1 | 2.3 | 13.2 µM (≈ 6.33 µg/mL)

Compound | logD [1] | solubility thermodynamic [2]
Cc1sc(N)nc1-c1ccccc1 | 2.75 | 955 µM (≈ 182 µg/mL)
O=C(c1ccc(Cl)cc1)C1CCN(C(=O)C2CC2)CC1 | 2.72 | 190 µM (≈ 55.6 µg/mL)
Nc1nc(-c2ccccc2)cs1 | 2.43 | 832 µM (≈ 147 µg/mL)
COCCN(c1ccnc(Nc2cc(N3CCOCC3)cc(N3CCOCC3)c2)n1)c1cc(CO)ccc1C | 2.8 | 302 µM (≈ 161 µg/mL)
Cc1c(-c2ccc3c(c2)OCO3)c(=O)n(C[C@H](N)c2ccccc2)c(=O)n1Cc1c(F)cccc1F | 2.67 | 372 µM (≈ 183 µg/mL)
O=c1cc(N2CCOCC2)nc2c3ccccc3ccn12 | 2.78 | 44.7 µM (≈ 12.6 µg/mL)
COc1cc(N2CCN(C(C)=O)CC2)ccc1Nc1ncc(C#N)c(-c2cnc3ccccn23)n1 | 2.8 | 0.9 µM (≈ 0.422 µg/mL)
Nc1nc(N)c(C(=O)Nc2ccccn2)nc1Cl | 2.67 | 4.5 µM (≈ 1.19 µg/mL)
CN(C(=O)c1ccncc1)C1CCN(CCC(c2ccccc2)c2ccccc2)CC1 | 2.8 | 537 µM (≈ 222 µg/mL)
CCOC(=O)c1ccc(COCC2CCN(c3ccc(C)nn3)CC2)cc1 | 2.68 | 468 µM (≈ 173 µg/mL)
CCOC(=O)c1ccc(OCCC2CN(c3ccc(C)nn3)CCO2)cc1 (configuration not stated) | 2.7 | 15.8 µM (≈ 5.87 µg/mL)
Clc1ccc(CN(Cc2ccc(Cl)cc2)c2nnn[nH]2)cc1 | 2.74 | 118 µM (≈ 39.3 µg/mL)
FC(F)(F)c1nnc2ccc(N3CCCC3)nn12 | 2.41 | 417 µM (≈ 107 µg/mL)
COc1cc2ncnc(Oc3cnn(CC(=O)Nc4ccc(N(C)C)cn4)c3)c2cc1OC | 2.36 | 6.6 µM (≈ 2.97 µg/mL)
Cc1nc(S(C)(=O)=O)ccc1Nc1ncnc(OC2CCN(C(=O)OC(C)C)CC2)c1C | 2.8 | 12.3 µM (≈ 5.7 µg/mL)
CCN1C(=O)N(C)c2cnc(Nc3ccc(C(=O)NC4CCN(C)CC4)cc3OC)nc2N1C1CCCC1 | 2.75 | 603 µM (≈ 315 µg/mL)
CCc1[nH]nc(NC(=O)Cc2ncc(Oc3ccnc4cc(OC)c(OC)cc34)cc2OC)c1C | 2.79 | 37.2 µM (≈ 17.8 µg/mL)
O=c1cc(-c2ccc(O)cc2)[nH]c2ccccc12 | 2.34 | 4.7 µM (≈ 1.12 µg/mL)
Cc1ccc(NC(=O)c2ccoc2)cc1-n1cnc2ccc(N3CCN(C)CC3)cc2c1=O | 2.43 | 1290 µM (≈ 571 µg/mL)
CN1CCN(c2ccc(NC(=O)c3nnc(Nc4ccccc4F)o3)cn2)CC1 | 2.36 | 91.2 µM (≈ 36.2 µg/mL)
CC(=O)N1CCN(c2ccc(NC(=O)c3nnc(Nc4ccccc4F)o3)cc2)CC1 | 2.51 | 6.2 µM (≈ 2.63 µg/mL)

Compound | logD [1] | solubility thermodynamic [2]
COc1cccc(Nc2nnc(C(=O)Nc3ccc(N4CCOCC4)nc3)o2)c1 | 2.8 | 4.6 µM (≈ 1.82 µg/mL)
CC(C)N1CCO[C@@H](CN2CCN(C(=O)Nc3ccc(Cl)c(Cl)c3)CC2)C1 | 2.77 | 1120 µM (≈ 466 µg/mL)
NC(=O)c1sc(-c2ccccc2)cc1N | 2.33 | 38.9 µM (≈ 8.49 µg/mL)
CC(C)Cn1c(=O)n(C)c(=O)c2c(C(=O)N3CC[C@@H](O)C3)c(Cc3ccccc3C(F)(F)F)sc21 | 2.74 | 550 µM (≈ 280 µg/mL)
Cc1cc(Nc2ccnc(NCc3cc(C4CC4)no3)n2)n[nH]1 | 2.5 | 63.1 µM (≈ 19.6 µg/mL)
Nc1ncnc2c1nc(Sc1nc3cccc(Cl)c3s1)n2CCO | 2.37 | 2 µM (≈ 0.758 µg/mL)
CN1CCC(COc2cc(OC3CCOCC3)c3c(Nc4c(Cl)ccc5c4OCO5)ncnc3c2)CC1 | 2.59 | 1380 µM (≈ 727 µg/mL)
COc1cc2c(NC(=O)Nc3c(Cl)cccc3Cl)ncnc2cc1OCC1CCN(C)CC1 | 2.7 | 10 µM (≈ 4.9 µg/mL)
CN1CCN(S(=O)(=O)c2ccc(-c3cnc(N)c(C(=O)Nc4cccnc4)n3)cc2F)CC1 | 2.66 | 2.7 µM (≈ 1.27 µg/mL)
O=C(Nc1ccccc1O)c1cc([N+](=O)[O-])ccc1Cl | 2.49 | 53.7 µM (≈ 15.7 µg/mL)
CS(=O)(=O)Cc1cc(N2CCOCC2)nc(-c2cccc3cc[nH]c23)n1 | 2.8 | 1.1 µM (≈ 0.41 µg/mL)
CS(=O)(=O)C1(c2cc(N3CCOCC3)nc(-c3ccccc3)n2)CC1 | 2.6 | 8.9 µM (≈ 3.2 µg/mL)
Cc1nc2ccc(Cl)cn2c1-c1ccnc(N)n1 | 2.49 | 759 µM (≈ 197 µg/mL)
CS(=O)(=O)c1ccc([C@@H](CC2CCCC2)C(=O)Nc2cnc([C@H](O)CO)cn2)cc1Cl | 2.58 | 468 µM (≈ 219 µg/mL)
O=C(c1ccc(F)cc1)C(O)c1ccc(F)cc1 (configuration not stated) | 2.49 | 933 µM (≈ 232 µg/mL)
Nc1n[nH]c2nnc(-c3ccccc3)c(-c3ccccc3)c12 | 2.6 | 15.8 µM (≈ 4.54 µg/mL)
c1ccc(-c2n[nH]cc2-c2ccnc3ccccc23)nc1 | 2.57 | 26.3 µM (≈ 7.16 µg/mL)
NC1(Cc2ccc(Cl)cc2)CCN(c2ncnc3[nH]ccc23)CC1 | 2.72 | 339 µM (≈ 116 µg/mL)
CN(C)CC(O)COc1ccc(Nc2nccc(Nc3cccc(Cl)c3)n2)cc1 (configuration not stated) | 2.5 | 120 µM (≈ 49.8 µg/mL)
Cc1sc(N2CCN(C)CC2)nc1CCOc1ccc(C[C@H](Nc2ccccc2C(=O)c2ccccc2)C(=O)O)cc1 | 2.58 | 97.7 µM (≈ 57.1 µg/mL)
Cc1c(-c2ccccc2F)c(=O)n(C[C@H](N)c2ccccc2)c(=O)n1Cc1c(F)cccc1F | 2.76 | 407 µM (≈ 190 µg/mL)

Compound | logD [1] | solubility thermodynamic [2]
COC(=O)COc1ccc(C(=O)Nc2ccc(F)cc2)cn1 | 2.43 | 55 µM (≈ 16.7 µg/mL)
COc1cc2ncnc(Nc3cccc(Cl)c3F)c2cc1CN1CCC[C@H]1CC(N)=O | 2.64 | 234 µM (≈ 104 µg/mL)
COc1cc2c(Nc3cnc(NC(=O)c4ccccc4)nc3)ncnc2cc1OCCCN1CCOCC1 | 2.7 | 3.6 µM (≈ 1.86 µg/mL)
CNC(=O)Nc1cc(-c2ccccc2)sc1C(N)=O | 2.71 | 1.1 µM (≈ 0.303 µg/mL)
NS(=O)(=O)c1cccc(Nc2nccc(Nc3cccc4[nH]ncc34)n2)c1 | 2.6 | 51.3 µM (≈ 19.6 µg/mL)
CN(C)CC(O)COc1ccc(Nc2nccc(N(CC#N)c3cc(Cl)ccc3Cl)n2)cc1 (configuration not stated) | 2.4 | 575 µM (≈ 280 µg/mL)
Cc1ncc(-c2nc(Nc3ccc(C(=O)N4CCN(C)CC4)cc3)ncc2F)n1C(C)C | 2.49 | 57.5 µM (≈ 25.2 µg/mL)
Cc1ncc(-c2ccnc(Nc3ccc(S(=O)(=O)CCCN4CCOCC4)cc3)n2)n1C(C)C | 2.43 | 851 µM (≈ 412 µg/mL)
CC(=O)N1CCN(c2ccc(Nc3nccc(-c4cnc(C)n4C(C)C)n3)cc2)CC1 | 2.39 | 148 µM (≈ 62 µg/mL)
Cn1c(=O)n(Cc2ccc(C(=O)O)cc2)c(=O)c2cc(C#CCc3ccccc3)ccc21 | 2.5 | 3 µM (≈ 1.27 µg/mL)
Cc1ncc(-c2nc(Nc3ccc(C(=O)NC4CCN(C)CC4)c(F)c3)ncc2F)n1C(C)C | 2.41 | 275 µM (≈ 129 µg/mL)
COc1ccc(CNCc2ccc(-c3cc(C(N)=O)c(NC(N)=O)s3)cc2)cc1 | 2.55 | 11.5 µM (≈ 4.72 µg/mL)
Cc1cccc(NS(=O)(=O)c2ccc(-c3ccc(C#N)cc3)cc2)n1 | 2.42 | 17.4 µM (≈ 6.08 µg/mL)
CCOc1ccc2nc(N)sc2c1 | 2.4 | 851 µM (≈ 165 µg/mL)
COc1cc(Nc2cc(Oc3cccnc3)ccn2)cc(OC)c1OC | 2.66 | 93.3 µM (≈ 33 µg/mL)
Cc1cc(Oc2ccnc(Nc3ccc(S(N)(=O)=O)cc3)c2)c(-c2ccccn2)nc1C | 2.34 | 2.5 µM (≈ 1.12 µg/mL)
Cc1ccc(Oc2ccnc(Nc3ccc(S(N)(=O)=O)cc3)c2)c(C)n1 | 2.47 | 4.2 µM (≈ 1.56 µg/mL)
O=c1[nH]nc(Cc2ccccc2)c2ccccc12 | 2.8 | 24.5 µM (≈ 5.79 µg/mL)
